Data: PubChem BioAssay (NCI)
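Step 1: Grow cells in 96-well plates. Step 2: Expose to compound for 48 hours at 5 concentrations. Step 3: Interpolate endpoints linearly; if unreached, use highest concentration. TGI is the concentration that stops growth completely.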

What was measured:
Experiment in all cases: NCI-60 cell line screen, 48 h
UACC-62 melanoma = tested on: UACC-62 melanoma
HT29 colon = tested on: HT29 colon
OVCAR-4 ovarian = tested on: OVCAR-4 ovarian
NCI-H522 lung = tested on: NCI-H522 lung
M14 melanoma = tested on: M14 melanoma
DU-145 prostate = tested on: DU-145 prostate
MALME-3M melanoma = tested on: MALME-3M melanoma
MOLT-4 leukemia = tested on: MOLT-4 leukemia
SK-MEL-2 melanoma = tested on: SK-MEL-2 melanoma
SNB-75 CNS = tested on: SNB-75 CNS
TK-10 renal = tested on: TK-10 renal
T-47D breast = tested on: T-47D breast
RXF 393 renal = tested on: RXF 393 renal
EKVX NSCLC = tested on: EKVX NSCLC
SW-620 colon = tested on: SW-620 colon
UACC-257 melanoma = tested on: UACC-257 melanoma
K-562 leukemia = tested on: K-562 leukemia
MCF7 breast = tested on: MCF7 breast
CCRF-CEM leukemia = tested on: CCRF-CEM leukemia
A549 NSCLC = tested on: A549 NSCLC
HOP-92 NSCLC = tested on: HOP-92 NSCLC
SK-MEL-5 melanoma = tested on: SK-MEL-5 melanoma
MDA-N = tested on: MDA-N
SF-539 CNS = tested on: SF-539 CNS
MDA-MB-435 = tested on: MDA-MB-435
OVCAR-5 ovarian = tested on: OVCAR-5 ovarian
SK-OV-3 ovarian = tested on: SK-OV-3 ovarian
U251 CNS = tested on: U251 CNS
NCI/ADR-RES ovarian = tested on: NCI/ADR-RES ovarian
KM12 colon = tested on: KM12 colon
LOX IMVI melanoma = tested on: LOX IMVI melanoma
NCI-H460 lung = tested on: NCI-H460 lung
UO-31 renal = tested on: UO-31 renal
SK-MEL-28 melanoma = tested on: SK-MEL-28 melanoma
RPMI-8226 leukemia = tested on: RPMI-8226 leukemia
SNB-19 CNS = tested on: SNB-19 CNS
IGROV1 ovarian = tested on: IGROV1 ovarian
MDA-MB-231 breast = tested on: MDA-MB-231 breast
OVCAR-8 ovarian = tested on: OVCAR-8 ovarian
NCI-H23 lung = tested on: NCI-H23 lung
SR leukemia = tested on: SR leukemia
NCI-H226 lung = tested on: NCI-H226 lung
BT-549 breast = tested on: BT-549 breast
COLO 205 colon = tested on: COLO 205 colon
SN12C renal = tested on: SN12C renal
HOP-62 NSCLC = tested on: HOP-62 NSCLC
HCC-2998 colon = tested on: HCC-2998 colon
HL-60(TB) leukemia = tested on: HL-60(TB) leukemia
A498 renal = tested on: A498 renal
786-0 renal = tested on: 786-0 renal
OVCAR-3 ovarian = tested on: OVCAR-3 ovarian
CAKI-1 renal = tested on: CAKI-1 renal
PC-3 prostate = tested on: PC-3 prostate
SF-268 CNS = tested on: SF-268 CNS
HCT-116 colon = tested on: HCT-116 colon
HCT-15 colon = tested on: HCT-15 colon
ACHN renal = tested on: ACHN renal
SF-295 CNS = tested on: SF-295 CNS
HS 578T breast = tested on: HS 578T breast

## COC(=O)[C@]1(C)[C@H]2C[C@H]3O[C@H]4[C@H](O)[C@@H](O)OC(CC(O)C(C5=CC(=O)OC5)C(C5=CC(=O)OC5)C(O)CC56CCCCC7[C@@H](C)[C@H](C[C@H]8[C@](C)(C(=O)OC)[C@H](O)CC[C@]78C)O[C@H]([C@@H](O)[C@H](O)O5)[C@H]6O)(CCCCC([C@@H]3C)[C@]2(C)CC[C@@H]1O)[C@H]4O (stereo partly specified)
UACC-62 melanoma
  TGI: 779 nM
HT29 colon
  TGI: 825 nM
OVCAR-4 ovarian
  TGI: 373 nM
NCI-H522 lung
  TGI: 55.8 nM
M14 melanoma
  TGI: 1160 nM
DU-145 prostate
  TGI: 219 nM
MALME-3M melanoma
  TGI: 407 nM
MOLT-4 leukemia
  TGI: 88.3 nM
SK-MEL-2 melanoma
  TGI: 643 nM
SNB-75 CNS
  TGI: 1040 nM
TK-10 renal
  TGI: 234 nM
T-47D breast
  TGI: 6620 nM
RXF 393 renal
  TGI: 264 nM
EKVX NSCLC
  TGI: 224 nM
SW-620 colon
  TGI: 1780 nM
UACC-257 melanoma
  TGI: 1010 nM
K-562 leukemia
  TGI: 1730 nM
MCF7 breast
  TGI: 1580 nM
CCRF-CEM leukemia
  TGI: 333 nM
A549 NSCLC
  TGI: 182 nM
HOP-92 NSCLC
  TGI: 3920 nM
SK-MEL-5 melanoma
  TGI: 129 nM
MDA-N
  TGI: 786 nM
SF-539 CNS
  TGI: 321 nM
MDA-MB-435
  TGI: 1100 nM
OVCAR-5 ovarian
  TGI: 3140 nM
SK-OV-3 ovarian
  TGI: 735 nM
U251 CNS
  TGI: 1090 nM
NCI/ADR-RES ovarian
  TGI: 286 nM
KM12 colon
  TGI: 1970 nM
LOX IMVI melanoma
  TGI: 1170 nM
NCI-H460 lung
  TGI: 14 nM
UO-31 renal
  TGI: 442 nM
SK-MEL-28 melanoma
  TGI: 10400 nM
RPMI-8226 leukemia
  TGI: 539 nM
SNB-19 CNS
  TGI: 1120 nM
IGROV1 ovarian
  TGI: 1200 nM
MDA-MB-231 breast
  TGI: 1890 nM
OVCAR-8 ovarian
  TGI: 1200 nM
NCI-H23 lung
  TGI: 318 nM
SR leukemia
  TGI: 253 nM
NCI-H226 lung
  TGI: 5020 nM
BT-549 breast
  TGI: 305 nM
COLO 205 colon
  TGI: 1330 nM
SN12C renal
  TGI: 159 nM
HOP-62 NSCLC
  TGI: 640 nM
HCC-2998 colon
  TGI: 2940 nM
HL-60(TB) leukemia
  TGI: 348 nM
A498 renal
  TGI: 737 nM
786-0 renal
  TGI: 225 nM
OVCAR-3 ovarian
  TGI: 1050 nM
CAKI-1 renal
  TGI: 849 nM
PC-3 prostate
  TGI: 449 nM
SF-268 CNS
  TGI: 212 nM
HCT-116 colon
  TGI: 530 nM
HCT-15 colon
  TGI: 1110 nM

## CCOc1cc2c(cc1O)CC[C@@H]1[C@@H]2CC[C@]2(C)[C@@H](O)CC[C@@H]12
UACC-62 melanoma
  TGI: 19700 nM
HT29 colon
  TGI: 17400 nM
OVCAR-4 ovarian
  TGI: > 100000 nM
NCI-H522 lung
  TGI: 19.7 nM
M14 melanoma
  TGI: 3160 nM
DU-145 prostate
  TGI: 9150 nM
MALME-3M melanoma
  TGI: 50000 nM
MOLT-4 leukemia
  TGI: 11600 nM
ACHN renal
  TGI: > 96100 nM
SK-MEL-2 melanoma
  TGI: 64800 nM
RXF 393 renal
  TGI: 816 nM
EKVX NSCLC
  TGI: 48000 nM
SW-620 colon
  TGI: > 100000 nM
SF-295 CNS
  TGI: 5870 nM
K-562 leukemia
  TGI: 6240 nM
MCF7 breast
  TGI: 56400 nM
CCRF-CEM leukemia
  TGI: 11900 nM
A549 NSCLC
  TGI: 48100 nM
HOP-92 NSCLC
  TGI: 29600 nM
SK-MEL-5 melanoma
  TGI: 2480 nM
MDA-N
  TGI: < 19.8 nM
SF-539 CNS
  TGI: 42.6 nM
MDA-MB-435
  TGI: 76.1 nM
OVCAR-5 ovarian
  TGI: 98200 nM
SK-OV-3 ovarian
  TGI: 77300 nM
U251 CNS
  TGI: 19300 nM
NCI/ADR-RES ovarian
  TGI: 8980 nM
KM12 colon
  TGI: 10800 nM
LOX IMVI melanoma
  TGI: 21000 nM
NCI-H460 lung
  TGI: 23000 nM
UO-31 renal
  TGI: 63100 nM
SK-MEL-28 melanoma
  TGI: 77500 nM
RPMI-8226 leukemia
  TGI: 7860 nM
SNB-19 CNS
  TGI: 7130 nM
IGROV1 ovarian
  TGI: 56100 nM
MDA-MB-231 breast
  TGI: 6670 nM
OVCAR-8 ovarian
  TGI: 33500 nM
NCI-H23 lung
  TGI: 24900 nM
SR leukemia
  TGI: 1020 nM
NCI-H226 lung
  TGI: 3950 nM
BT-549 breast
  TGI: 18300 nM
COLO 205 colon
  TGI: 33500 nM
SN12C renal
  TGI: 46300 nM
HS 578T breast
  TGI: > 82800 nM
HOP-62 NSCLC
  TGI: 15100 nM
HCC-2998 colon
  TGI: 5510 nM
HL-60(TB) leukemia
  TGI: 352 nM
A498 renal
  TGI: 20000 nM
786-0 renal
  TGI: 47100 nM
OVCAR-3 ovarian
  TGI: 760 nM
CAKI-1 renal
  TGI: 52900 nM
PC-3 prostate
  TGI: 40800 nM
SF-268 CNS
  TGI: 48500 nM
HCT-116 colon
  TGI: 6630 nM
HCT-15 colon
  TGI: 27200 nM
